Assay results taken from patent US20110262562A1, “AQUEOUS SALINE SOLUTIONS FOR THE DESTRUCTION OF FATTY TISSUE” (LIPOLYANE, priority 2008, published 2011).

Key:
[1] = test system: adipocytes prepared from murine adipous tissues; test: LDH released into the culture medium by murine adipocytes; format: cell-based; conditions: TDC 500 μM in 150 mOsm/L, compared with 150 mOsm/L alone (FIG. 7)
Method: Adipocytes were prepared from murine adipous tissues in the following way. Adipous tissues were sampled under aseptic conditions on anesthetized animals, and then finally cut and subjected to a dissociating enzymatic treatment with collagenase type II at 37° C. The incubation mixture was then centrifuged in order to remove the tissue debris. The adipocytes were purified by filtration under sterile conditions on a 160 μm nylon filter. After mild centrifugation, the adipocytes were washed from a phosphate buffer solution with pH 7.4 and, after counting, taken up again into a cell culture medium adapted from the type of Dubelco Modified Eagle's Medium or DMEM, and finally placed in sterile culture flasks and incubator at 37° C. adapted to the experiments. […]
Cell lysis was appreciated by the change in the number of adipocytes on the one hand and by the dosage of an intracellular enzyme released into the culture medium, lactico-dehydrogenase (abbreviated hereafter as LDH) on the other hand, expressed as a percentage with respect to the conditions for which cell lysis is complete (obtained in the presence of distilled water) and by comparison with the conditions of cell cultures.

[2] = test system: line of human adipocytes (SW872); test: LDH activity released on lysis of human adipocytes in culture; format: cell-based
Method: To do this, adipocytes were incubated for durations comprised between 0 and 2 hours, in aqueous saline solutions according to the invention, and for which the concentrations of poloxamers and of biliary acid […]
The efficiency of adipocyte lysis was appreciated by the measurement of the activity of a cytosolic enzyme lactico dehydrogenase (LDH), released in the culture medium and expressed as a percentage of the total lysis.
The cells were derived from a line of human adipocytes (SW872) stemming from a liposarcoma deposited at the American Cell Bank of the National Institute of Health (NIH).
The adipocytes were cultivated in the following medium: DMEM (Dubelco's modified Eagle medium) with a high glucose content (4.5 g/L) which contained pyruvate, antibiotics (penicillin/streptomycin), a supplement of amino acids and 25% of Ham-F12 medium.
It should be noted that the experiments were then conducted in the presence of 1% fetal calf serum in order to minimize basal LDH activity likely to be present in the serum.
The salts of biliary acids and/or the poloxamers were put into solution in the aforementioned culture medium under sterile conditions. Suitable diluted aqueous saline solutions were made from parent solutions at 2% for poloxamers and 3 mM for the biliary acid salt.
The adipocytes were cultivated under sterile conditions (plastic dishes, incubator with 5% CO2, 37° C.) in suitable specific media and used for less than 10 passages oso as to conduct experiments on primary cells, i.e. close to the original adipous tissues. Cell counts were carried out in Mallassez cells and the viability was appreciated by exclusion of the blue dye Trypan.
After re-suspending them under the action of trypsin, the adipocytes were incubated in sterile 96-well plates. For experiments requiring significant amounts of cells, the preliminary incubations were conducted in sterile 24-well plates, and then transferred into 96-well plates (round bottom) for centrifugation, in order to efficiently separate entire cells from lyzed cells having released their enzymatic content then again found in the supernatant. An aliquot (100 μL) of the latter was then transferred into another 96-well plate adapted to dosages (flat bottom). After addition of the mixture of corresponding reagents (kit BioChain #K6330400), LDH activity was then measured (after incubation for 40 minutes with intermittent orbital stirring) in a computerized plate reader (MR5000/Biolinx, Dynatech) at the wavelength of 490 nm corrected from absorbance at 630 nm. The results are expressed as a percentage of the total lysis carried out in the presence of detergent (1% Triton X100).

| Compound | activity of LDH in the medium [1] | lytic activity (LDH activity) ([2]; 300 mOsm/L, 750 μM of DC, after one hour (FIG. 15 B)) [%] | maximum lysis (LDH activity) ([2]; 300 mOsm/L, DC 0 to 750 μM, incubation of one hour) [%] | LDH activity ([2]; 300 mOsm/L, DC 750 μM, after 30 minutes of incubation) [%] | LDH activity ([2]; 300 mOsm/L, DC 750 μM, after 2 hours of incubation) [%] | LDH activity ([2]; DC 750 μM added to hypo-osmolar (160 mOsm/L) aqueous saline solution, after one hour (FIG. 15 D or F)) [%] |
| --- | --- | --- | --- | --- | --- | --- |
| C[C@H](CCC(=O)NCCS(=O)(=O)[O-])[C@H]1CC[C@H]2[C@@H]3CC[C@@H]4C[C@H](O)CC[C@]4(C)[C@H]3C[C@H](O)[C@]12C.[Na+] [TDC, sodium tauro-deoxycholate] | much more increased |  |  |  |  |  |
| sodium deoxycholate [DC] |  | 38±5 | 42±7 | 26 | 37 | ~72±8 |
